Assays:
Assay type in all cases: cell-based
Escherichia coli = assay: Agar plate disc-diffusion, antibacterial, Escherichia coli; conditions: Gram negative
Procedure: (§1) The agar plate disc-diffusion method was applied. […] The discs were then placed onto the surface of agar plates (nutrient agar for bacteria and Sabouraud's dextrose agar for fungi) seeded with the test organism. Each plate contained 15 mL of the agar medium, previously seeded with 0.2 mL of the broth culture of each organism pregrown for 18 hours. The plates were incubated at 37° C. for 48 hours and 72 hours for fungi. The inhibition zones were measured in mm. Discs impregnated with DMSO were used as a control, and their inhibition zone was subtracted from the tested compound's actual inhibition zone.

Pseudomonas aeruginosa = assay: Agar plate disc-diffusion, antibacterial, Pseudomonas aeruginosa; conditions: Gram negative
Procedure: as §1

Staphylococcus aureus = assay: Agar plate disc-diffusion, antibacterial, Staphylococcus aureus; conditions: Gram positive
Procedure: as §1

[1] = tested on: Chrysosporium keratinophilum; assay: Agar plate disc-diffusion, antifungal, Chrysosporium keratinophilum; conditions: Fungal
Procedure: as §1

Bacillus cereus = assay: Agar plate disc-diffusion, antibacterial, Bacillus cereus; conditions: Gram positive
Procedure: as §1

Aspergillus flavus = assay: Agar plate disc-diffusion, antifungal, Aspergillus flavus; conditions: Fungal
Procedure: as §1

[2] = A = concentration of comp. = 10,000 μL
[3] = B = concentration of comp. = 30,000 μL
[4] = C = concentration of comp. = 50,000 μL

Compound: N/C(=N\OC(=O)CSc1nnc(-c2ccc(Cl)cc2)o1)c1cccc2ccccc12 [compound 3, N′-(2-(5-(4-chlorophenyl)-1,3,4-oxadiazol-2-ylthio)acetoxy)-1-naphthimidamide]
- inhibition zone, Escherichia coli, A (Escherichia coli; [2]): 26 mm
- inhibition zone, Escherichia coli, B (Escherichia coli; [3]): 32 mm
- inhibition zone, Escherichia coli, C (Escherichia coli; [4]): 50 mm
- inhibition zone, Pseudomonas aeruginosa, A (Pseudomonas aeruginosa; [2]): 26 mm
- inhibition zone, Pseudomonas aeruginosa, B (Pseudomonas aeruginosa; [3]): 28 mm
- inhibition zone, Pseudomonas aeruginosa, C (Pseudomonas aeruginosa; [4]): 45 mm
- inhibition zone, Staphylococcus aureus, A (Staphylococcus aureus; [2]): 27 mm
- inhibition zone, Staphylococcus aureus, B (Staphylococcus aureus; [3]): 30 mm
- inhibition zone, Staphylococcus aureus, C (Staphylococcus aureus; [4]): 38 mm
- inhibition zone, Chrysosporium keratinophilum, A [1, 2]: 22 mm
- inhibition zone, Chrysosporium keratinophilum, B [1, 3]: 28 mm
- inhibition zone, Chrysosporium keratinophilum, C [1, 4]: 39 mm
- inhibition zone, Bacillus Cereus, A (Bacillus cereus; [2]): 22 mm
- inhibition zone, Bacillus Cereus, B (Bacillus cereus; [3]): 25 mm
- inhibition zone, Bacillus Cereus, C (Bacillus cereus; [4]): 34 mm
- inhibition zone, Aspergillus flavus, A (Aspergillus flavus; [2]): 24 mm
- inhibition zone, Aspergillus flavus, B (Aspergillus flavus; [3]): 27 mm
- inhibition zone, Aspergillus flavus, C (Aspergillus flavus; [4]): 36 mm
